Test results: the NIST ThermoML archive (doi:10.1021/acs.jced.8b01075)
± gives the expanded uncertainty stated by the source.

Assay: molar heat capacity at saturation pressure
Settings: Crystal, Small (less than 1 g) adiabatic calorimetry

O=C(O)c1ccccc1 [benzoic acid]
Settings | molar heat capacity [J/K/mol]
4.54 K | 0.238 ± 0.019
4.75 K | 0.256 ± 0.019
4.88 K | 0.271 ± 0.019
5.02 K | 0.296 ± 0.02
5.16 K | 0.31 ± 0.02
5.29 K | 0.316 ± 0.02
5.42 K | 0.327 ± 0.02
5.53 K | 0.343 ± 0.02
5.64 K | 0.358 ± 0.021
5.75 K | 0.372 ± 0.021
5.85 K | 0.388 ± 0.021
5.95 K | 0.419 ± 0.022
6.07 K | 0.438 ± 0.022
6.22 K | 0.468 ± 0.022
6.38 K | 0.502 ± 0.023
6.53 K | 0.521 ± 0.024
6.7 K | 0.571 ± 0.025
6.84 K | 0.618 ± 0.026
6.99 K | 0.662 ± 0.026
7.14 K | 0.7 ± 0.027
7.29 K | 0.731 ± 0.028
7.43 K | 0.778 ± 0.029
7.57 K | 0.823 ± 0.03
7.72 K | 0.893 ± 0.031
7.86 K | 0.954 ± 0.033
8.01 K | 0.978 ± 0.033
8.16 K | 1.053 ± 0.035
8.31 K | 1.116 ± 0.036
8.46 K | 1.163 ± 0.037
8.6 K | 1.263 ± 0.039
8.76 K | 1.329 ± 0.041
8.91 K | 1.384 ± 0.042
9.07 K | 1.472 ± 0.044
9.22 K | 1.512 ± 0.045
9.38 K | 1.58 ± 0.046
9.53 K | 1.649 ± 0.048
9.69 K | 1.725 ± 0.049
9.84 K | 1.858 ± 0.052
10 K | 1.902 ± 0.053
10.21 K | 2.036 ± 0.056
10.49 K | 2.207 ± 0.06
10.76 K | 2.354 ± 0.063
11.04 K | 2.56 ± 0.068
11.32 K | 2.751 ± 0.072
11.6 K | 2.956 ± 0.076
11.88 K | 3.123 ± 0.08
12.17 K | 3.346 ± 0.085
12.45 K | 3.529 ± 0.089
12.75 K | 3.819 ± 0.095
13.03 K | 4.037 ± 0.1
13.33 K | 4.28 ± 0.1
13.62 K | 4.532 ± 0.11
13.91 K | 4.755 ± 0.12
14.01 K | 4.933 ± 0.12
14.31 K | 5.137 ± 0.12
14.6 K | 5.519 ± 0.13
14.9 K | 5.794 ± 0.14
15.19 K | 6.073 ± 0.14
15.49 K | 6.356 ± 0.15
15.79 K | 6.616 ± 0.15
16.09 K | 6.911 ± 0.16
16.39 K | 7.207 ± 0.17
16.7 K | 7.541 ± 0.17
17 K | 7.836 ± 0.18
17.3 K | 8.091 ± 0.19
17.6 K | 8.409 ± 0.19
17.91 K | 8.786 ± 0.2
18.21 K | 9.095 ± 0.21
18.52 K | 9.471 ± 0.21
18.83 K | 9.71 ± 0.22
19.13 K | 10.14 ± 0.23
19.44 K | 10.4 ± 0.23
19.58 K | 10.55 ± 0.24
19.75 K | 10.7 ± 0.24
19.89 K | 10.86 ± 0.24
20.52 K | 11.49 ± 0.26
21.41 K | 12.5 ± 0.28
22.31 K | 13.49 ± 0.3
23.22 K | 14.56 ± 0.32
24.13 K | 15.56 ± 0.34
25.05 K | 16.55 ± 0.36
25.98 K | 17.58 ± 0.38
26.92 K | 18.63 ± 0.4
27.86 K | 19.67 ± 0.42
28.81 K | 20.7 ± 0.44
29.76 K | 21.73 ± 0.46
30.71 K | 22.75 ± 0.19
31.67 K | 23.72 ± 0.2
32.64 K | 24.69 ± 0.2
33.6 K | 25.68 ± 0.21
34.57 K | 26.57 ± 0.21
35.56 K | 27.57 ± 0.22
36.53 K | 28.47 ± 0.22
37.51 K | 29.44 ± 0.23
38.5 K | 30.44 ± 0.24
39.89 K | 31.71 ± 0.24
40.89 K | 32.53 ± 0.25
41.89 K | 33.31 ± 0.25
42.89 K | 33.99 ± 0.26
43.89 K | 34.84 ± 0.26
44.89 K | 35.7 ± 0.27
45.89 K | 36.42 ± 0.27
46.89 K | 37.22 ± 0.28
47.9 K | 38.04 ± 0.28
48.9 K | 38.77 ± 0.28
49.91 K | 39.47 ± 0.29
50.92 K | 40.13 ± 0.29
51.94 K | 40.84 ± 0.3
52.95 K | 41.56 ± 0.3
53.97 K | 42.16 ± 0.3
54.98 K | 42.68 ± 0.31
56.02 K | 43.44 ± 0.31
57.03 K | 44.09 ± 0.32
58.06 K | 44.66 ± 0.32
59.17 K | 45.31 ± 0.32
60.19 K | 45.98 ± 0.33
61.22 K | 46.55 ± 0.33
62.24 K | 47.19 ± 0.34
63.27 K | 47.79 ± 0.34
64.3 K | 48.32 ± 0.34
65.32 K | 48.9 ± 0.35
66.35 K | 49.45 ± 0.35
67.38 K | 49.97 ± 0.35
68.41 K | 50.43 ± 0.35
69.43 K | 50.89 ± 0.36
71.27 K | 51.74 ± 0.36
73.3 K | 52.71 ± 0.37
75.33 K | 53.69 ± 0.37
77.36 K | 54.68 ± 0.38
78.78 K | 55.18 ± 0.38
79.56 K | 55.66 ± 0.39
81.07 K | 56.41 ± 0.39
83.09 K | 57.46 ± 0.4
85.1 K | 58.18 ± 0.4
87.11 K | 58.97 ± 0.41
89.11 K | 59.73 ± 0.41
91.11 K | 60.5 ± 0.44
93.12 K | 61.27 ± 0.44
95.11 K | 62.07 ± 0.44
97.11 K | 62.81 ± 0.45
99.11 K | 63.57 ± 0.45
101.6 K | 64.59 ± 0.36
104.58 K | 65.66 ± 0.36
107.58 K | 66.69 ± 0.36
110.58 K | 67.85 ± 0.37
113.59 K | 69.03 ± 0.37
116.61 K | 70.18 ± 0.37
119.62 K | 71.3 ± 0.38
122.63 K | 72.54 ± 0.38
125.65 K | 73.61 ± 0.38
128.67 K | 74.78 ± 0.39
131.69 K | 75.96 ± 0.39
134.72 K | 77.09 ± 0.39
137.76 K | 78.23 ± 0.4
140.79 K | 79.41 ± 0.4
143.83 K | 80.49 ± 0.4
146.87 K | 81.68 ± 0.41
149.91 K | 82.93 ± 0.41
152.95 K | 84.03 ± 0.42
156 K | 85.17 ± 0.42
159.05 K | 86.37 ± 0.42
162.09 K | 87.59 ± 0.43
165.18 K | 88.85 ± 0.43
168.23 K | 90.02 ± 0.44
171.28 K | 91.22 ± 0.44
174.33 K | 92.46 ± 0.44
177.38 K | 93.64 ± 0.45
180.44 K | 94.8 ± 0.45
183.49 K | 96.08 ± 0.46
186.54 K | 97.26 ± 0.46
189.6 K | 98.55 ± 0.46
192.66 K | 99.83 ± 0.47
195.71 K | 101 ± 0.5
198.77 K | 102.3 ± 0.5
201.83 K | 103.6 ± 0.5
204.89 K | 104.9 ± 0.5
208.45 K | 106.6 ± 0.5
212.52 K | 108.2 ± 0.5
216.67 K | 110.1 ± 0.5
220.76 K | 111.7 ± 0.5
224.85 K | 113.5 ± 0.5
228.95 K | 115.3 ± 0.5
237.16 K | 119 ± 0.5
241.28 K | 120.8 ± 0.5
245.39 K | 122.6 ± 0.5
249.52 K | 124.4 ± 0.6
253.64 K | 126.3 ± 0.6
257.77 K | 128.1 ± 0.6
261.9 K | 130 ± 0.6
266.04 K | 132 ± 0.6
270.19 K | 133.8 ± 0.6
274.34 K | 135.7 ± 0.6
278.49 K | 137.6 ± 0.6
282.77 K | 139.8 ± 0.6
286.93 K | 141.6 ± 0.6
291.09 K | 143.5 ± 0.6
295.26 K | 145.5 ± 0.6
299.42 K | 147.4 ± 0.6
304.38 K | 149.7 ± 0.6
310.53 K | 152.6 ± 0.7
317.37 K | 155.7 ± 0.7
324.19 K | 158.8 ± 0.7
330.99 K | 162 ± 0.7
